How the values were obtained:
[1] = system: SW620 cells; assay: MTT cell viability, SW620; type: cell-based; conditions: Homo sapiens, SW-620; 48 h, MTT assay
Description: (§1) Cells (3 × 10^3 cells/well) were seeded on a 96‐well plate, grown overnight, and then treated with compounds at indicated concentrations for 48 h. After incubation with MTT for 4 h at 37°C, cells were lysed with 150 µL of DMSO (Sigma–Aldrich, St. Louis, USA). Absorbance was measured at 570 nm on a microplate reader with the Gen5 software (v.2.03.1; BioTek, Winooski, VT, USA).

[2] = system: DLD1 cells; assay: MTT cell viability, DLD1; type: cell-based; conditions: Homo sapiens, DLD-1; 48 h, MTT assay
Description: as §1

[3] = system: CaCo2 cells; assay: MTT cell viability, CaCo2; type: cell-based; conditions: Homo sapiens, Caco-2; 48 h, MTT assay
Description: as §1

[4] = system: NIH3T3 cells; assay: MTT cell viability, NIH3T3; type: cell-based; conditions: Mus musculus, 48 h, MTT assay
Description: as §1

[5] = system: CSC221 cells; assay: Spheroid formation assay, CSC221; type: cell-based, human; conditions: for spheroid formation, cotreatment with cetuximab: CSC221, 5 µM with cetuximab 10, 25, and 50 µg/mL, 2 weeks; for spheroid formation: CSC221, up to 10 µM, 14 days, compared with TU and DA
Description: Monolayer cells were separated into single‐cell suspensions at around 70% confluence using a solution of trypsin. After that, the cells were added to N2‐supplemented DMEM/F12 that contained human basal fibroblast growth factor and human recombinant epidermal growth factor. Cells seeded at a density of 5 × 10^3 cells/well in ultra‐low attachment 24‐well plates (Corning Inc., Corning, NY, USA). After 10–14 days of culture, spheres were quantitated by inverted phase contrast microscopy. The relative sphere formation ability was calculated through the IMT iSolution software (IMT iSolution Inc., Northampton, NJ, USA) measuring the pixel intensity of the sphere area randomly in each plate.

[6] = system: HaCaT cells; assay: MTT cell viability, HaCaT; type: cell-based; conditions: Homo sapiens, 48 h, MTT assay
Description: as §1

[7] = system: HCT116 cells; assay: MTT cell viability, HCT116; type: cell-based; conditions: Homo sapiens, HCT-116; 48 h, MTT assay
Description: as §1

[8] = system: HT29 cells; assay: MTT cell viability, HT29; type: cell-based; conditions: Homo sapiens, HT-29; 48 h, MTT assay
Description: as §1

[9] = system: CSC221, DLD1, CaCo2, HT29, HCT116, and SW620 cells; assay: Seahorse XF Cell Mito Stress Test; type: cell-based, human; conditions: 5 µM, 48 h
Description: Seahorse XF96 extracellular flux analyzer (Agilent, Santa Clara, CA, USA) was used for glycolytic rate and cell mito stress test assays. Cells were seeded at 1 × 10^4 cells/well, incubated overnight in culture medium (2% FBS), and then treated with DMSO or compound for 48 h. The plated cells were twice washed and loaded (180 µL) with assay media enhanced with glutamine, sodium pyruvate, and glucose on the day of analysis. Before analysis, the cells were incubated for 1 h at 37°C in a non‐CO2 incubator. Then, cell mito stress, mito tox, or glycolytic rate assay was tested. Agilent Seahorse XF Mito Stress Test Kit was utilized in accordance with Agilent Seahorse's standard methodology. This test examines the OCR of cells directly, which provides important information on mitochondrial function. First, 1 µM oligomycin (inhibits ATP synthase) was injected. The second injection was FCCP (1 µM), an uncoupling agent that compresses the proton gradient and disturbs the mitochondrial membrane potential. Last injection with 0.5 µM Rotenone (Rot; a complex I inhibitor) + antimycin A (AA; a complex III inhibitor) was loaded for OCR analysis. Agilent Seahorse XF Glycolytic Rate Assay was utilized in accordance with Agilent Seahorse's standard methodology. […] The results were analyzed using the Wave software (Agilent).

Row | IC50 [1] [µM] | IC50 [2] [µM] | IC50 [3] [µM] | IC50 [7] [µM] | IC50 [8] [µM] | Compound | IC50 [4] [µM] | spheroid formation, cotreatment with cetuximab [5] | spheroid formation [5] | IC50 [6] [µM] | oxygen consumption rate (OCR) [9]
1 | 2.27 | 57.8 | 2.77 | 4.5 | 7.47 | COCCCOc1c(C)c(OC(=O)c2c(C)cc(OC)c(C)c2OC)cc(C)c1C(=O)OC [SB5, 4-(Methoxycarbonyl)-3-(3-methoxypropoxy)-2,5-dimethylphenyl 2,4-dimethoxy-3,6-dimethylbenzoate] | 112 | significantly reduced the adverse effects of cetuximab | suppress spheroid formation more strongly than TU and DA | 70.7 | dramatically suppresses the oxygen consumption rate (OCR)
2 | 5.33 | 4.08 | 8.74 | 11.7 | 3.95 | COCCOc1c(C)c(OC(=O)c2c(C)cc(OC)c(C)c2OC)cc(C)c1C(=O)OC [SB4, 4-(Methoxycarbonyl)-3-(2-methoxyethoxy)-2,5-dimethylphenyl 2,4-dimethoxy-3,6-dimethylbenzoate] | 121 | significantly reduced the adverse effects of cetuximab | suppress spheroid formation more strongly than TU and DA | 26.7 | dramatically suppresses the oxygen consumption rate (OCR)

From publication PMC12579162, “Synthesized Depside Molecules Suppress the Progression of Colorectal Cancer by Binding VDAC1/PHB/MMP9 Being at the Crossroads of Stemness, Motility, Apoptosis, and Metabolism” (MedComm, 2025)
